# Measured values published in ChEMBL document CHEMBL4342490, “Discovery of Potent and Selective MTH1 Inhibitors for Oncology: Enabling Rapid Target (In)Validation” (ACS Med Chem Lett, 2020).
# Active and inactive are the calls of the source. The calls are words filed in the database; no cut-off is given here.
# Key:
# U2OS [1] = assay: Cytotoxicity against human U2OS cells assessed as reduction in cell viability incubated for 72 hrs by celltiter glo assay
# SW480 = assay: Cytotoxicity against human SW480 cells assessed as reduction in cell viability incubated for 72 hrs by celltiter glo assay; conditions: SW480, 72 h
# [2] = target: Oxidized purine nucleoside triphosphate hydrolase (Homo sapiens) (UniProt P36639); assay: Inhibition of MTH1 in human U2OS cells assessed as activation of p53 at 2.25 uM incubated for 4 and 24 hrs by Peggy sue Western blot assay; type: cell-based
# [3] = Cytotoxicity against human MT4 cells assessed as reduction in cell viability incubated for 72 hrs by celltiter glo assay; type: cell-based
# U2OS [4] = assay: Induction of DNA damage in human U2OS cells assessed as increase in gammaH2AX foci formation at 20 uM incubated for 72 hrs by immunostaining based confocal microscopy; type: functional, cell-based
# [5] = Stability of compound in human plasma assessed as half life; type: ADME, cell-free
# [6] = Kinetic solubility of compound at pH 7; conditions: buffer
# [7] = Kinetic solubility of compound at pH 2; conditions: buffer
# [8] = Glutathione reactivity of compound; type: physicochemical
# [9] = Lipophilicity, logD of the compound at pH 7.4; type: physicochemical; conditions: buffer
# [10] = Chemical stability of compound at pH 6 to 9 at 40 degreeC; type: physicochemical; conditions: buffer
# [11] = Permeability across apical to basolateral side in human Caco2 cells; conditions: Caco-2
# [12] = Dissociation constant, pKa of the compound; type: physicochemical
# [13] = Stability of compound in rat plasma assessed as half life; type: ADME, cell-free
# [14] = Permeability across basolateral to apical side in human Caco2 cells; type: ADME, cell-based; conditions: Caco-2, read-out: permeability
# [15] = target: CYP isoform (not specified) (Homo sapiens, UniProt P04798+P05177+P05181+P08684+P10632+P10635+P11509+P11712+P13584+P20813+P20815+P20853+P24462+P24903+P33260+P33261+P51589+P78329+P98187+Q02928+Q08477+Q16678+Q16696+Q5TCH4+Q6VVX0+Q7Z449+Q8TAV3+Q96SQ9+Q9HB55); assay: Inhibition of CYP isoform (unknown origin); type: ADME, protein assay
# [16] = Volume of distribution in Sprague-Dawley rat at 5 mg/kg, po or 1 mg/kg, iv; type: ADME, organism-based; conditions: in vivo
# [17] = target: T1, Nuclear receptor subfamily 1 group I member 2 (Homo sapiens, UniProt O75469); assay: Activation of human PXR at 15 uM
# T1 sequence (O75469 whole entry): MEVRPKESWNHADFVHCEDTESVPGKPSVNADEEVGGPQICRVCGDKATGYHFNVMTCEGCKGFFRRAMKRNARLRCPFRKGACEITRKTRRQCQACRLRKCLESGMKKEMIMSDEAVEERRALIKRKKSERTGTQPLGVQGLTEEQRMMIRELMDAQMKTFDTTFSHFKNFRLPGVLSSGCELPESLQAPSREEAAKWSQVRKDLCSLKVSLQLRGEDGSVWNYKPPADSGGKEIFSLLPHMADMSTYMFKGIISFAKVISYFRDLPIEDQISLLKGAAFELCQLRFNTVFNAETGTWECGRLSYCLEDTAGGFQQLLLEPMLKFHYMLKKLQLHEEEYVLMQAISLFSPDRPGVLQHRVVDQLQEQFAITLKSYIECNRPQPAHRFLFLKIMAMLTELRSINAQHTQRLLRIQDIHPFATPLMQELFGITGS
# [18] = Half life in Sprague-Dawley rat at 5 mg/kg, po or 1 mg/kg, iv; type: ADME, organism-based; conditions: in vivo
# [19] = target: Voltage-gated inwardly rectifying potassium channel KCNH2 (Homo sapiens, UniProt Q12809); assay: Inhibition of human ERG
# [20] = Clearance in Sprague-Dawley rat at 5 mg/kg, po or 1 mg/kg, iv; type: ADME, organism-based; conditions: in vivo
# [21] = Oral bioavailability in Sprague-Dawley rat at 5 mg/kg; type: ADME, organism-based; conditions: in vivo
# Voltage-gated inwardly rectifying potassium channel KCNH2, sequence (Q12809 whole entry): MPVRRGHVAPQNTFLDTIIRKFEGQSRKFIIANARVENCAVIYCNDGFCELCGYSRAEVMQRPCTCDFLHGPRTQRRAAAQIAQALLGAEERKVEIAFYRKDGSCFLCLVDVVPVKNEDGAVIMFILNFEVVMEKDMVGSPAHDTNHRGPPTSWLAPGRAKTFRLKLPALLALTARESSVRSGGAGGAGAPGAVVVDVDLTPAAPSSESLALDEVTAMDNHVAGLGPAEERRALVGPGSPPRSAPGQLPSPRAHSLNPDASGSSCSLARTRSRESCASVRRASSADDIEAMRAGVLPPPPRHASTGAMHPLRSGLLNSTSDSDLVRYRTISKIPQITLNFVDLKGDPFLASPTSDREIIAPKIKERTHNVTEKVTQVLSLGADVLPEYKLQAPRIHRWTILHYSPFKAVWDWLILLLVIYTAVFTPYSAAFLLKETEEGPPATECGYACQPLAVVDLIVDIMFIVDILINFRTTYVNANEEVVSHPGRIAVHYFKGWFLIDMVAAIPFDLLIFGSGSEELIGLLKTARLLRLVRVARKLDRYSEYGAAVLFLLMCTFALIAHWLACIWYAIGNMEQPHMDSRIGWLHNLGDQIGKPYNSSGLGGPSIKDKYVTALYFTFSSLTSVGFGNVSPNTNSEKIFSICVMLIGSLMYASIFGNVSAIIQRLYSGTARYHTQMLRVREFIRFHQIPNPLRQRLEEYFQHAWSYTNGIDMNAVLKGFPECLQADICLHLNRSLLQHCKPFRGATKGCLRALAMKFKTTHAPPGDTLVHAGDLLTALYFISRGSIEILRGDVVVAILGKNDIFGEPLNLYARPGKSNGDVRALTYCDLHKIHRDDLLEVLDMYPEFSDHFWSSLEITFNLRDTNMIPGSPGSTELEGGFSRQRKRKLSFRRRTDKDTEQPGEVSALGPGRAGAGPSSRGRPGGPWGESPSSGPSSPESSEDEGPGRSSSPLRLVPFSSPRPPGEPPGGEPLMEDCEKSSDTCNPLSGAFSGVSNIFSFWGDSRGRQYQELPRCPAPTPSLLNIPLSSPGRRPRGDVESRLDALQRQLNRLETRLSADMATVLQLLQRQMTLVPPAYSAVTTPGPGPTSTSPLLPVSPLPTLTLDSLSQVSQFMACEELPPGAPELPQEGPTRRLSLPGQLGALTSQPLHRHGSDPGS
smiles,measurement,setting,value
Nc1nc2c(-c3cccc(Cl)c3Cl)cccc2[nH]1,EC50,U2OS [1],14.4 µM
CNc1cc(-c2cccc(Cl)c2Cl)nc(N)n1,EC50,SW480,3 µM
same,EC50,U2OS [1],0.7 to 1.8 µM
same,Activity,[2],Active
same,CC50 at 72 h,[3],0.726 µM
same,Activity,U2OS [4],Active
CC(=O)Nc1cc2c(c(-c3cccc(C)c3C)n1)CCCN2,half-life,[5],4.2 h
same,solubility kinetic,[6],70 µM
same,solubility kinetic,[7],97 µM
same,Activity,[8],Not Active
same,logD,[9],2.5
same,EC50,U2OS [1],8.05 µM
same,Stability,[10],Stable
same,Papp A→B,[11],35 ×10⁻⁶ cm/s
same,pKa,[12],7.5
same,half-life,[13],7.43 h
same,CC50 at 72 h,[3],19 µM
same,Papp B→A,[14],32 ×10⁻⁶ cm/s
same,Activity,U2OS [4],inactive
Nc1nc2cccc(-c3cccc(Cl)c3Cl)n2n1,IC50,[15],> 25 µM
same,solubility kinetic,[6],74 µM
same,Vd,[16],2.7 L/kg
same,solubility kinetic,[7],93 µM
same,Activity,[17],Not Active
same,half-life,[18],3.2 h
same,EC50,U2OS [1],20.3 µM
same,Papp A→B,[11],41 ×10⁻⁶ cm/s
same,IC50,[19],> 25 µM
same,CC50 at 72 h,[3],> 50 µM
same,Papp B→A,[14],34 ×10⁻⁶ cm/s
same,clearance,[20],12.2 mL/min/kg
same,bioavailability,[21],86%
same,Activity,U2OS [4],inactive
CNc1cc(N(C)[C@@H](C)c2ccccc2)nc(N)n1,EC50,U2OS [1],24.9 µM
COc1ccc2nc3[nH]nc(C)c3c(NCCOCCO)c2c1,EC50,U2OS [1],> 20 µM
CNc1cc(N2CCCCC2)nc(N)n1,Activity,U2OS [4],inactive
C[C@H](Oc1cc(-c2cnn(C3CCNCC3)c2)cnc1N)c1c(Cl)ccc(F)c1Cl,EC50,U2OS [1],6.8 µM
O=C1c2c(O)ccc(O)c2C(=O)c2c(NCCNCCO)ccc(NCCNCCO)c21,inhibition,[2],Active
Nc1nc(NC2CC2)cc(-c2cccc(Cl)c2Cl)n1,EC50,SW480,9.7 µM
same,EC50,U2OS [1],5.6 µM
CC(=O)Nc1cc2ncccc2c(-c2cccc(C)c2C)n1,Papp A→B,[11],37 ×10⁻⁶ cm/s
same,pKa,[12],3.5
same,Papp B→A,[14],45 ×10⁻⁶ cm/s
